Where “and” joins values, the source holds several entries; their conditions need not be identical. Identical values can stand only once.
System: SH-SY5Y cells
Test: Live cell FLIM of intracellular aggregation
Assay type: cell-based, human
Details: 500 nM peptide in culture medium; for lag phase of intracellular aggregation: 0–48 hr, live cell FLIM (Figure 4D)
Excerpt: Having established that the fluorescence lifetime of HF488 acts as a reporter of amyloid formation of Aβ(1–40) and Aβ(1–42), we set out to investigate how the aggregation state of each of the two peptide isoforms is affected by its cellular uptake and accumulation in acidic organelles in SH-SY5Y cells. Using FLIM, we observed that there are no significant differences (p = 0.95, Table S1) in the fluorescence lifetimes of extracellular and internalized ^HF488Aβ(1–40) during the first 6 hr after application of 500 nM peptide to the culture medium (Figures 4A and 4D), indicating the presence of similar ^HF488Aβ(1–40) species within the cells as those applied to the extracellular environment. […] We then examined the cells treated with the same concentration of ^HF488Aβ(1–40) for 24 and 48 hr (Figures 4C and 4D), washing them prior to imaging to remove any extracellular fluorescence. […] The difference compared with the extracellular starting value, however, is statistically significant first after 48 hr (p = 0.0032, Table S1). […]
All FLIM experiments were carried out using HF488-labeled Aβ peptides, and images were recorded by time-correlated single photon counting (TCSPC) using a confocal microscopy platform built on an Olympus Fluoview FV300 confocal scan unit. […] The excitation beam was reflected onto the sample with a 20/80 broad bandwidth coated beam splitter so that 20% of the excitation light passed on to the sample and 80% of the fluorescence signal was reflected toward the confocal pinhole. The fluorescence light was passed through a 515-nm Semrock long-pass filter (Laser 2000) and passed onto a fast photomultiplier tube (PMC-100, Becker & Hickl). Lifetimes were recorded using TCSPC circuitry (SPC-830, Becker & Hickl). […] The instrument response was measured using reflected light from either a coverslip or a coated mirror. […]

Substance	lag phase of intracellular aggregation	endpoint value of intracellular fluorescence lifetime (endpoint (48h, p = 0.22 Table S2), cells washed once, live cell FLIM)
^HF488Aβ(1–42): Synthetic 42-residue amyloid β peptide labeled at the N terminus with Hilyte Fluor 488, purchased from Anaspec	shows no such effect	–
^HF488Aβ(1–40): Synthetic 40-residue amyloid β peptide labeled at the N terminus with Hilyte Fluor 488, purchased from Anaspec	appears to exhibit a lag phase	3.35 ± 0.2 ns and 3.31 ± 0.2 ns

From paper PMC4067742, “Direct Observations of Amyloid β Self-Assembly in Live Cells Provide Insights into Differences in the Kinetics of Aβ(1–40) and Aβ(1–42) Aggregation” (Chemistry & Biology, 2014)
